The molecules below were run against recombinant human SYK (GST-hSYK fusion protein) (Homo sapiens, UniProt P43405) (assay: biochemical). Details: Syk IC50, HTRF, recombinant human GST-SYK.
From the text: Homogeneous Time-Resolved Fluorescence (HTRF) Assay for the Recombinant Human SYK Enzyme:

IC50 [µM] | Structure (SMILES)
< 0.0005 | Cc1cc(Nc2nccc(C(F)(F)F)n2)cc(-c2cnc(C(C)(O)c3ccc(C(=O)O)cc3)s2)c1 (stereo not shown) [4-{1-hydroxy-1-[5-(3-methyl-5-{[4-(trifluoromethyl)pyrimidin-2-yl]amino}phenyl)-1,3-thiazol-2-yl]ethyl}benzoic acid]
0.002 | Cc1cc(Nc2nccc(C(F)(F)F)n2)cc(-c2cnc(C3(O)CC4(CC(C(=O)O)C4)C3)s2)c1 (stereo not shown) [6-hydroxy-6-[5-(3-methyl-5-{[4-(trifluoromethyl)pyrimidin-2-yl]amino}phenyl)-1,3-thiazol-2-yl]spiro[3.3]heptane-2-carboxylic]

Same assay, conditions: hSYK Activity, table of Example 23-1

IC50 [µM] | Structure (SMILES)
< 0.1 | NC(=O)[C@H]1CC[C@H](c2ncc(-c3cccc(Nc4nccc(C(F)(F)F)n4)c3)s2)CC1 [23-1]

Same assay, conditions: hSYK Activity, table of Example 28-1

IC50 [µM] | Structure (SMILES)
< 0.1 | CC(C)(O)c1ncc(-c2cc(Nc3nccc(C(F)(F)F)n3)cc(C(F)F)c2)s1 [28-1]

Same assay, conditions: rhSYK Activity, Table 8A

IC50 [µM] | Structure (SMILES)
< 0.1 | Cc1cc(Nc2ncc(F)c(C)n2)cc(-c2cnc([C@]3(O)CC[C@@H](O)CC3)s2)c1 [8A-1]
< 0.1 | Cc1cc(Nc2ncc(Cl)c(C)n2)cc(-c2cnc([C@]3(O)CC[C@@H](O)CC3)s2)c1 [8A-2]
< 0.1 | COc1nc(Nc2cc(C)cc(-c3cnc([C@]4(O)CC[C@@H](O)CC4)s3)c2)ncc1F [8A-3]
< 0.1 | Cc1cc(Nc2ncc(F)c(C3CC3)n2)cc(-c2cnc([C@]3(O)CC[C@@H](O)CC3)s2)c1 [8A-4]
< 0.1 | COc1nc(Nc2cc(C)cc(-c3cnc(C4(O)CCC(O)CC4)s3)c2)ncc1Cl (stereo not shown) [8A-5]
< 0.1 | Cc1cc(Nc2nccc(C(F)(F)F)n2)cc(-c2cnc(C3(O)CCC(O)C(C)(C)C3)s2)c1 (stereo not shown) [8A-6]
< 0.1 | Cc1cc(Nc2ncc(F)c(C)n2)cc(-c2cnc(C3(O)CCC(=O)CC3)s2)c1 [8A-8]

Same assay, conditions: rhSYK Activity, Table 24

IC50 [µM] | Structure (SMILES)
< 0.1 | CC(O)c1ncc(-c2cc(Nc3nccc(C(F)(F)F)n3)cc(N3CCOCC3)c2)s1 (stereo not shown) [24-1]
< 0.1 | CC(=O)c1ncc(-c2cc(Nc3nccc(C(F)(F)F)n3)cc(N3CCOCC3)c2)s1 [24-3]
< 0.1 | CS(=O)(=O)N1CCN(c2cc(Nc3nccc(C(F)(F)F)n3)cc(-c3cnc(C4(O)CCC4)s3)c2)CC1 [24-4]
< 0.1 | CC(O)(c1ncc(-c2cc(Nc3nccc(C(F)(F)F)n3)cc(N3CCOCC3)c2)s1)C1CC1 (stereo not shown) [24-6]
< 0.1 | CC(O)(c1ncc(-c2cc(Nc3nccc(C(F)(F)F)n3)cc(N3CCOCC3)c2)s1)C(F)(F)F (stereo not shown) [24-7]

Same assay, conditions: rhSYK Activity, Table 26

IC50 [µM] | Structure (SMILES)
0.1 to 1 | FC(F)(F)c1ccnc(Nc2cccc(-c3cnc(C4(F)CCC4)s3)c2)n1 [26-3]

Same assay, conditions: rhSYK Activity, Table 46

IC50 [µM] | Structure (SMILES)
< 0.1 | Cc1cc(Nc2nccc(C(F)(F)F)n2)cc(-c2cnc(C3(O)CCNC(C(F)(F)F)C3)s2)c1 (stereo not shown) [46-1]
< 0.1 | COC(=O)C1CC(O)(c2ncc(-c3cc(C)cc(Nc4nccc(C(F)(F)F)n4)c3)s2)CCN1 (stereo not shown) [46-2]

Same assay, conditions: rhSYK Activity, Table 54B

IC50 [µM] | Structure (SMILES)
< 0.1 | Cc1cc(Nc2nccc(C(F)(F)F)n2)cc(-c2cnc(C3(O)CCN(C(N)=O)C3)s2)c1 (stereo not shown) [54B-2]
0.1 to 1 | Cc1cc(Nc2nccc(C(F)(F)F)n2)cc(-c2cnc(C3(O)CCN(C(=O)OC(C)(C)C)C3)s2)c1 (stereo not shown) [54B-4]
< 0.1 | Cc1cc(Nc2nccc(C(F)(F)F)n2)cc(-c2cnc(C3(O)CCNC3)s2)c1 (stereo not shown) [54B-5]
< 0.1 | Cc1cc(Nc2nccc(C(F)(F)F)n2)cc(-c2cnc(C3(O)CCN(S(N)(=O)=O)C3)s2)c1 (stereo not shown) [54B-6]
< 0.1 | Cc1cc(Nc2nccc(C(F)(F)F)n2)cc(-c2cnc(C3(O)CCN(S(=O)(=O)NC(=O)OC(C)(C)C)C3)s2)c1 (stereo not shown) [54B-9]
< 0.1 | COc1ccnc(Nc2cc(C)cc(-c3cnc(C4(O)CCN(C(N)=O)C4)s3)c2)n1 (stereo not shown) [54B-10]
< 0.1 | COc1ccnc(Nc2cc(C)cc(-c3cnc(C4(O)CCNC4)s3)c2)n1 (stereo not shown) [54B-11]
< 0.1 | Cc1cc(Nc2nccc(C)n2)cc(-c2cnc(C3(O)CCNC3)s2)c1 (stereo not shown) [54B-12]
< 0.1 | Cc1cc(Nc2nccc(C)n2)cc(-c2cnc(C3(O)CCN(C(N)=O)C3)s2)c1 (stereo not shown) [54B-13]
< 0.1 | Cc1cc(Nc2nccc(C(F)(F)F)n2)cc(-c2cnc(C3(O)CCN(CCO)C3)s2)c1 (stereo not shown) [54B-19]
< 0.1 | Cc1cc(Nc2nccc(C(F)(F)F)n2)cc(-c2cnc(C3(O)CCN(CC(N)=O)C3)s2)c1 (stereo not shown) [54B-20]
< 0.1 | Cc1cc(Nc2nccc(C(F)(F)F)n2)cc(-c2cnc(C3(O)CCN(C(=O)CO)C3)s2)c1 (stereo not shown) [54B-21]
< 0.1 | Cc1cc(Nc2nccc(C(F)(F)F)n2)cc(-c2cnc(C3(O)CCN(CC(=O)O)C3)s2)c1 (stereo not shown) [54B-22]
< 0.1 | Cc1cc(Nc2nccc(C(F)(F)F)n2)cc(-c2cnc(C3(O)CCN(C(=O)C(N)=O)C3)s2)c1 (stereo not shown) [54B-23]
< 0.1 | COC(=O)CN1CCC(O)(c2ncc(-c3cc(C)cc(Nc4nccc(C(F)(F)F)n4)c3)s2)C1 (stereo not shown) [54B-24]
< 0.1 | Cc1cc(Nc2nccc(C(F)(F)F)n2)cc(-c2cnc(C3(O)CCN(C(=O)C(=O)O)C3)s2)c1 (stereo not shown) [54B-25]
< 0.1 | Cc1cc(Nc2nccc(C(F)(F)F)n2)cc(-c2cnc(C3(O)CCN(C(=O)CC(N)=O)C3)s2)c1 (stereo not shown) [54B-26]
< 0.1 | COC(=O)C(=O)N1CCC(O)(c2ncc(-c3cc(C)cc(Nc4nccc(C(F)(F)F)n4)c3)s2)C1 (stereo not shown) [54B-27]
< 0.1 | Cc1cc(Nc2nccc(C(F)(F)F)n2)cc(-c2cnc(C3(O)CCN(C(=O)C(O)CO)C3)s2)c1 (stereo not shown) [54B-28]
< 0.1 | Cc1cc(Nc2nccc(C(F)(F)F)n2)cc(-c2cnc(C3(O)CCN(C(=O)c4ccno4)C3)s2)c1 (stereo not shown) [54B-29]
< 0.1 | Cc1cc(Nc2nccc(C(F)(F)F)n2)cc(-c2cnc(C3(O)CCN(C(=O)C4(O)CCC4)C3)s2)c1 (stereo not shown) [54B-30]
< 0.1 | Cc1cc(Nc2nccc(C(F)(F)F)n2)cc(-c2cnc(C3(O)CCN(C4CCC(C(=O)O)C4)C3)s2)c1 (stereo not shown) [54B-32]
< 0.1 | COC(=O)C1CCC(N2CCC(O)(c3ncc(-c4cc(C)cc(Nc5nccc(C(F)(F)F)n5)c4)s3)C2)C1 (stereo not shown) [54B-34]
0.1 to 1 | COC(=O)c1cccc(N2CCC(O)(c3ncc(-c4cc(C)cc(Nc5nccc(C(F)(F)F)n5)c4)s3)C2)c1 (stereo not shown) [54B-35]
< 0.1 | Cc1cc(Nc2nccc(C(F)(F)F)n2)cc(-c2cnc(C3(O)CC(C(=O)O)N(C(N)=O)C3)s2)c1 (stereo not shown) [54B-36]
< 0.1 | COC(=O)C1CC(O)(c2ncc(-c3cc(C)cc(Nc4nccc(C(F)(F)F)n4)c3)s2)CN1C(N)=O (stereo not shown) [54B-37]

Same assay, conditions: rhSYK Activity, Table 54C

IC50 [µM] | Structure (SMILES)
< 0.1 | OC1(c2ncc(-c3cccc(Nc4nccc(C(F)(F)F)n4)c3)s2)CCNC1 (stereo not shown) [54C-1]

Same assay, conditions: rhSYK Activity, Table 61A

IC50 [µM] | Structure (SMILES)
< 0.1 | Cc1cc(Nc2nccc(C(F)(F)F)n2)cc(-c2cnc(C(NS(C)(=O)=O)(C3CC3)C3CC3)s2)c1 [61A-1]
0.1 to 1 | Cc1cc(Nc2nccc(C(F)(F)F)n2)cc(-c2cnc(C(N[S+]([O-])C(C)(C)C)(C3CC3)C3CC3)s2)c1 (stereo not shown) [61A-2]
< 0.1 | Cc1cc(Nc2nccc(C(F)(F)F)n2)cc(-c2cnc(C(C)(C)N)s2)c1 [61A-3]
< 0.1 | Cc1cc(Nc2nccc(C(F)(F)F)n2)cc(-c2cnc(C(C)(C)NS(C)(=O)=O)s2)c1 [61A-4]

Same assay, conditions: rhSYK Activity, Table 65

IC50 [µM] | Structure (SMILES)
< 0.1 | Cc1cc(Nc2nccc(C(F)(F)F)n2)cc(-c2cnc(C3(NC(=O)NC(N)=O)COC3)s2)c1 [65-1]
< 0.1 | COc1ccnc(Nc2cc(C)cc(-c3cnc(C4(NC(=O)NC(N)=O)CCC4)s3)c2)n1 [65-2]
< 0.1 | Cc1cc(Nc2ncccn2)cc(-c2cnc(C3(NC(=O)NC(N)=O)CCC3)s2)c1 [65-3]
< 0.1 | Cc1cc(Nc2nccc(C3CC3)n2)cc(-c2cnc(C3(NC(=O)NC(N)=O)CCC3)s2)c1 [65-4]
< 0.1 | Cc1cc(Nc2nccc(C(F)(F)F)n2)cc(-c2cnc(C3(NC(=O)NC(N)=O)CCNC(=O)CC3)s2)c1 (stereo not shown) [65-6]

Reference: patent US8551984B2, “Aminopyrimidines as SYK inhibitors” (Merck Sharp & Dohme Corp., priority 2009, dated 2013)
